In experiment [1] the target is T1, human CCR2B (Homo sapiens (Human), UniProt P41597). Description: Inhibition of [125I]-labeled MCP-1 binding to hCCR2B (radioligand binding in CHO cells). To be noted: mean Ki; [125I]-MCP-1 50 pM; CHO cells expressing human CCR2B and Gα16. An excerpt:
CHO cells expressing human CCR2B were generated as follows. cDNA for human CCR2B (cloned from human blood) was cloned into plasmid pcDNA3.1 (from Invitrogen). The resulting plasmids were separately transfected into CHO cells expressing human Gα16 (from Molecular Devices). […] CHO cells expressing rat CCR2 were generated as follows. cDNA for rat CCR2 (cloned from rat macrophage) was cloned into plasmid pEF-flag (from Chinese Academy of Science). The resulting plasmids were transfected into CHO cells expressing human Gα16 (from […]).
Inhibition of [^125I]-Labeled MCP-1 Binding to hCCR2B
Radioligand binding assays were performed in CHO cells expressing human CCR2B and Gα16 coupling protein. All compounds were dissolved in DMSO and assays run at a final DMSO concentration of 0.5% (v/v). [^125I]-labeled human MCP-1 was purchased from PerkinElmer. Unlabelled human MCP-1 was purchased from PeproTech.
Compounds were serially diluted in DMSO before diluting into assay buffer (25 mM HEPES, pH 7.4, 5 mM MgCl2, 1 mM CaCl2, 0.5% BSA) with cryo preserved CHO cells expressing human CCR2B and the Gα16 coupling protein (30×10^3/well) and [^125I]-MCP-1 (50 pM). The reaction was incubated at room temperature for 90 minutes before transferring to GF/C filter membrane (PerkinElmer) pre-treated with 0.3% polyethyleneimine for 2 hours at 4° C. The filter membrane was washed six times with ice cold wash buffer (25 mM HEPES, pH 7.4, 5 mM MgCl2, 1 mM CaCl2, 500 mM NaCl, 0.01% (m/v) azide), dried, and sealed in a RLB sample bag (Agilent Technologies) before adding 5.0 mL Microscint 20 to each bag. Membrane was counted on Microbeta counter where background binding was determined by the presence of 100 nM MCP-1 and control total binding was determined by addition of DMSO in place of the test compound. The radioactivity values (cpm) were used to calculate the percent inhibition at a given compound concentration and the data fit to a sigmoidal curve in a semi-log plot to determine IC50 values. The corresponding Ki value is calculated as follows:
Ki=IC50/(1+[radioligand]/Kd), where [radioligand] is the concentration of the label and Kd (dissociation constant) is determined in saturation experiment with different concentrations of labeled MCP-1.

For another experiment, the target named is rat CCR2 (Rattus norvegicus (Rat), UniProt O55193). Put plainly: Inhibition of native agonist (rat MCP-1)-induced intracellular calcium release, calcium flux assay in CHO cells expressing rat CCR2 and Gα16. The class given is cell-based. To be noted: read-out: rCCR2 Kb. In a few lines:
(§1)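 Compound added to Calcium 4 dye-loaded adherent cells (dye loading 60 min, 37° C., HEPES pH 7.4 buffer with probenecid), then agonist: human MCP-1 at 2 nM final for hCCR2B cells, rat MCP-1 at 4 nM final for rCCR2 cells. FLIPR fluorescence change gave IC50. Kb=IC50/(1+[agonist]/EC50). Final DMSO 0.25%.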

In experiment [2] the target is T1, human CCR2B. Description: Inhibition of native agonist (human MCP-1)-induced intracellular calcium release, calcium flux assay in CHO cells expressing human CCR2B and Gα16. The class given is cell-based. To be noted: for IC50: read-out: hCCR2B IC50; for Kb: read-out: hCCR2B Kb. In a few lines: as §1

Where two headings read alike, the source gives them in different places.

Chain of rat CCR2 (O55193 whole entry): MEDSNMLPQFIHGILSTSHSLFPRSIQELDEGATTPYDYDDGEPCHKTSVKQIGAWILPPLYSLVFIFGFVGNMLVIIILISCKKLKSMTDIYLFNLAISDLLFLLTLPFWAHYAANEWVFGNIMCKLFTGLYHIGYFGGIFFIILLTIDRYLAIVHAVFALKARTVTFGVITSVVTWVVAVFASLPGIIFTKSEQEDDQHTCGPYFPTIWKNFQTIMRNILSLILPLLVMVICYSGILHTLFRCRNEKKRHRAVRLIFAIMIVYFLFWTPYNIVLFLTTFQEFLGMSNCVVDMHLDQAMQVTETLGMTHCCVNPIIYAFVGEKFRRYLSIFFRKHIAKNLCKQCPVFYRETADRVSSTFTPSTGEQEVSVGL
T1 sequence (P41597 other isoform, or with tags, fused parts or gaps): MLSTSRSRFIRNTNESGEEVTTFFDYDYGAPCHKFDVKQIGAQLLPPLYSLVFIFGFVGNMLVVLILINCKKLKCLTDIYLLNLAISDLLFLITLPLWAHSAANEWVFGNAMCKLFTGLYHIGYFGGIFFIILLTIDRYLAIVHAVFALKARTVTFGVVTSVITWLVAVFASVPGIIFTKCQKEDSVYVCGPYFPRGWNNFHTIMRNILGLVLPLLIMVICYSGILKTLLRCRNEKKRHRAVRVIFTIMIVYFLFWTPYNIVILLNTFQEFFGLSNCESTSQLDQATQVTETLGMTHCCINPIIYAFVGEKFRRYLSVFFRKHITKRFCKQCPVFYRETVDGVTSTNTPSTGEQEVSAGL

In turn, `CO[C@@H]1COCC[C@@H]1N[C@@H]1C[C@H]2CCC[C@@]2(C(=O)N2C[C@@H]3C[C@H]2CN3c2ccnc(C(F)(F)F)n2)C1` [Example 27, 1,5-anhydro-2,3-dideoxy-4-O-methyl-3-{[(2R,3aR,6aR)-3a-({(1S,4S)-5-[2-(trifluoromethyl)pyrimidin-4-yl]-2,5-diazabicyclo[2.2.1]hept-2-yl}carbonyl)octahydropentalen-2-yl]amino}-D-erythro-pentitol] registered a Ki at human CCR2B [1] of 444 nM. Further, the Kb at rat CCR2 was determined as 19 nM; at human CCR2B [2] it was 96 nM. Further, at human CCR2B [2] (calcium flux, human MCP-1 2 nM), the 50% inhibitory concentration (IC50) stood at 391 nM.

`CO[C@@H]1COCC[C@@H]1N[C@@H]1C[C@H]2CCC[C@@]2(C(=O)N2C[C@@H]3C[C@H]2CN3c2cc(C(F)(F)F)ccc2C#N)C1` [Example 28, 1,5-anhydro-3-{[(2R,3aR,6aR)-3a-({(1S,4S)-5-[2-cyano-5-(trifluoromethyl)phenyl]-2,5-diazabicyclo[2.2.1]hept-2-yl}carbonyl)octahydropentalen-2-yl]amino}-2,3-dideoxy-4-O-methyl-D-erythro-pentitol] displayed a Ki on human CCR2B [1] of 32 nM. The Kb on rat CCR2 and on human CCR2B [2] was 5 nM in each case. On human CCR2B [2] (calcium flux, human MCP-1 2 nM), the IC50 was determined as 19.8 nM.

`CO[C@@H]1COCC[C@@H]1N[C@@H]1C[C@H]2CCC[C@@]2(C(=O)N2C[C@@H]3C[C@H]2CN3c2cccc(OC(F)(F)F)c2)C1` [Example 29, 1,5-anhydro-2,3-dideoxy-4-O-methyl-3-{[(2R,3aR,6aR)-3a-({(1S,4S)-5-[3-(trifluoromethoxy)phenyl]-2,5-diazabicyclo[2.2.1]hept-2-yl}carbonyl)octahydropentalen-2-yl]amino}-D-erythro-pentitol] had a Ki at human CCR2B [1] of 473 nM. For the same compound, the Kb on rat CCR2 amounted to 8 nM; at human CCR2B [2], 36 nM. On human CCR2B [2] (calcium flux, human MCP-1 2 nM), the IC50 amounted to 148 nM.

At human CCR2B [1], `CO[C@@H]1COCC[C@@H]1N[C@@H]1C[C@H]2CCC[C@@]2(C(=O)N2C[C@@H]3C[C@H]2CN3c2nc(C(F)(F)F)cs2)C1` [Example 30, 1,5-anhydro-2,3-dideoxy-4-O-methyl-3-{[(2R,3aR,6aR)-3a-({(1S,4S)-5-[4-(trifluoromethyl)-1,3-thiazol-2-yl]-2,5-diazabicyclo[2.2.1]hept-2-yl}carbonyl)octahydropentalen-2-yl]amino}-D-erythro-pentitol] had a Ki of 831 nM. The results for the Kb at rat CCR2 and at human CCR2B [2] were 4 nM and 23 nM, respectively. Also, on human CCR2B [2] (calcium flux, human MCP-1 2 nM), the IC50 is 95.5 nM.

On to `CO[C@@H]1COCC[C@@H]1N[C@@H]1C[C@H]2CCC[C@@]2(C(=O)N2C[C@@H]3C[C@H]2CN3c2ncc(C(F)(F)F)cc2Cl)C1` [Example 32, 1,5-anhydro-3-{[(2R,3aR,6aR)-3a-({(1S,4S)-5-[3-chloro-5-(trifluoromethyl)pyridin-2-yl]-2,5-diazabicyclo[2.2.1]hept-2-yl}carbonyl)octahydropentalen-2-yl]amino}-2,3-dideoxy-4-O-methyl-D-erythro-pentitol], for which the affinity on human CCR2B [1] corresponds to a Ki of 1060 nM. Besides, the values for the Kb on rat CCR2 and on human CCR2B [2] were 44 nM and 77 nM, respectively. Besides, the IC50 on human CCR2B [2] (calcium flux, human MCP-1 2 nM) stood at 314 nM.

As for `CO[C@@H]1COCC[C@@H]1N[C@@H]1C[C@H]2CCC[C@@]2(C(=O)N2C[C@@H]3C[C@H]2CN3c2cc(C#N)ccc2C(F)(F)F)C1` [Example 36, 1,5-anhydro-3-{[(2R,3aR,6aR)-3a-({(1S,4S)-5-[5-cyano-2-(trifluoromethyl)phenyl]-2,5-diazabicyclo[2.2.1]hept-2-yl}carbonyl)octahydropentalen-2-yl]amino}-2,3-dideoxy-4-O-methyl-D-erythro-pentitol], the affinity at human CCR2B [1], expressed as Ki, was 1060 nM. The Kb on rat CCR2 was 24 nM; on human CCR2B [2], 75 nM. The IC50 on human CCR2B [2] (calcium flux, human MCP-1 2 nM) is 305 nM.

`CO[C@@H]1COCC[C@@H]1N[C@@H]1C[C@H]2CCC[C@@]2(C(=O)N2C[C@@H]3C[C@H]2CN3c2ccc(Cl)c(Cl)c2)C1` [Example 40, 1,5-anhydro-2,3-dideoxy-3-{[(2R,3aR,6aR)-3a-{[(1S,4S)-5-(3,4-dichlorophenyl)-2,5-diazabicyclo[2.2.1]hept-2-yl]carbonyl}octahydropentalen-2-yl]amino}-4-O-methyl-D-erythro-pentitol] gave a Ki at human CCR2B [1] of 38 nM. In addition, the Kb amounted to 3 nM on rat CCR2 and 10 nM on human CCR2B [2]. Besides, on human CCR2B [2] (calcium flux, human MCP-1 2 nM), the half-inhibitory concentration (IC50) was determined as 41.5 nM.

Take `CO[C@@H]1COCC[C@@H]1N[C@@H]1C[C@H]2CCC[C@@]2(C(=O)N2C[C@@H]3C[C@H]2CN3c2ccc(Cl)c(C#N)c2)C1` [Example 47, 1,5-anhydro-3-{[(2R,3aR,6aR)-3a-{[(1S,4S)-5-(4-chloro-3-cyanophenyl)-2,5-diazabicyclo[2.2.1]hept-2-yl]carbonyl}octahydropentalen-2-yl]amino}-2,3-dideoxy-4-O-methyl-D-erythro-pentitol]: on human CCR2B [1], affinity was put at a Ki of 77 nM. On rat CCR2, the Kb came out at 4 nM. At human CCR2B [2], the half-maximal inhibitory concentration (IC50) was determined as 49.8 nM and the Kb turned out to be 12 nM.

For `N#Cc1ccc(C(F)(F)F)cc1N1C[C@@H]2C[C@H]1CN2C(=O)[C@@]12CCC[C@@H]1C[C@@H](N1CCC(c3ccccc3)CC1)C2` [Example 48, 2-[(1S,4S)-5-{[(2R,3aR,6aR)-2-(4-phenylpiperidin-1-yl)hexahydropentalen-3a(1H)-yl]carbonyl}-2,5-diazabicyclo[2.2.1]hept-2-yl]-4-(trifluoromethyl)benzonitrile], on human CCR2B [1], the inhibitory constant (Ki) came out at 8 nM. Further, the results for the Kb at rat CCR2 and at human CCR2B [2] were 17 nM and 13 nM, respectively. For the same compound, the IC50 at human CCR2B [2] amounted to 51.8 nM.

In the case of `O=C(N1C[C@@H]2C[C@H]1CN2c1cc(C(F)(F)F)ccn1)[C@@]12CCC[C@@H]1C[C@@H](N1CCC(c3ccccc3)CC1)C2` [Example 49, [(2R,3aR,6aR)-2-(4-phenylpiperidin-1-yl)hexahydropentalen-3a(1H)-yl]{(1S,4S)-5-[4-(trifluoromethyl)pyridin-2-yl]-2,5-diazabicyclo[2.2.1]hept-2-yl}methanone], the inhibitory constant (Ki) at human CCR2B [1] stood at 15 nM. In addition, the Kb at rat CCR2 was determined as 23 nM. On human CCR2B [2], the IC50 is 37 nM and the Kb was 9 nM.

Regarding `CO[C@@H]1COCC[C@@H]1N[C@@H]1C[C@H]2CCC[C@@]2(C(=O)N2C[C@@H]3C[C@H]2CN3c2cc(C(F)(F)F)ccc2C(F)(F)F)C1` [Example 50, 1,5-anhydro-3-{[(2R,3aR,6aR)-3a-({(1S,4S)-5-[2,5-bis(trifluoromethyl)phenyl]-2,5-diazabicyclo[2.2.1]hept-2-yl}carbonyl)octahydropentalen-2-yl]amino}-2,3-dideoxy-4-O-methyl-D-erythro-pentitol], at human CCR2B [1], affinity was put at a Ki of 78 nM. Besides, the Kb at rat CCR2 came to 6 nM. In addition, at human CCR2B [2], the IC50 came to 25.9 nM and the Kb amounted to 6 nM.

On human CCR2B [1], `CO[C@@H]1COCC[C@@H]1N(C)[C@@H]1C[C@H]2CCC[C@@]2(C(=O)N2C[C@@H]3C[C@H]2CN3c2ccc(Cl)c(C(F)(F)F)c2)C1` [Example 51, 1,5-anhydro-3-{[(2R,3aR,6aR)-3a-({(1S,4S)-5-[4-chloro-3-(trifluoromethyl)phenyl]-2,5-diazabicyclo[2.2.1]hept-2-yl}carbonyl)octahydropentalen-2-yl](methyl)amino}-2,3-dideoxy-4-O-methyl-D-erythro-pentitol] came in with a Ki of 21 nM. Besides, the Kb amounted to 29 nM at rat CCR2 and 11 nM on human CCR2B [2]. Besides, the IC50 at human CCR2B [2] (calcium flux, human MCP-1 2 nM) came to 43.3 nM.

With `CO[C@@H]1COCC[C@@H]1N(C)[C@@H]1C[C@H]2CCC[C@@]2(C(=O)N2C[C@@H]3C[C@H]2CN3c2cc(C(F)(F)F)ccc2C(F)(F)F)C1` [Example 52, 1,5-anhydro-3-{[(2R,3aR,6aR)-3a-({(1S,4S)-5-[2,5-bis(trifluoromethyl)phenyl]-2,5-diazabicyclo[2.2.1]hept-2-yl}carbonyl)octahydropentalen-2-yl](methyl)amino}-2,3-dideoxy-4-O-methyl-D-erythro-pentitol], at human CCR2B [1], affinity was put at a Ki of 49 nM. Besides, the Kb on rat CCR2 was determined as 38 nM. Besides, on human CCR2B [2], the IC50 is 83.9 nM and the Kb is 21 nM.
